# Legend:
# [1] = target: T1, human adrenergic-α2C receptor (Homo sapiens, UniProt P18825); test: Radioligand binding experiment for hα2C-adrenoceptor ([3H]raulwolscine); conditions: [3H]raulwolscine 1 nM, 60 minutes at 25° C.; read-out: h-α2C pIC50 (converted)
# T1 construct: expressed in transfected cells; host or cells: CHO cells, stably transfected; membrane preparation
# T1 sequence (P18825 1-462): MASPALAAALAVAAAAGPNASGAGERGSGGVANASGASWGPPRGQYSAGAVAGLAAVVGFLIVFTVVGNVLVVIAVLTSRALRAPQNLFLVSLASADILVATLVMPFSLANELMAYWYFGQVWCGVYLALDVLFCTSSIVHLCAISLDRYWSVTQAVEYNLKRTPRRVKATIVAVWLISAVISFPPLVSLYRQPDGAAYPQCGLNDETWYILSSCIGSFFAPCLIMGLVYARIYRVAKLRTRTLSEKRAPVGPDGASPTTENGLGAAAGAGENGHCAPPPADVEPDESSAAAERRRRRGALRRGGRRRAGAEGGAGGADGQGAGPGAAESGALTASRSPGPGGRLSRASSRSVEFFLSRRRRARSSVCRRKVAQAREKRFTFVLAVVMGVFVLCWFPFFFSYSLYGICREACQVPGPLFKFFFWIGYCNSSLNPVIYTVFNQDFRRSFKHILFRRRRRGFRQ
# How it was run: (§1)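 CHO membranes expressing human α2A or α2C receptors were incubated with 1 nM [^3H]raulwolscine for 60 min at 25° C in glycylglycine 25 mM, pH 8.0, then filtered. Nonspecific binding was defined with 1 μM oxymetazoline for α2A and 1 μM spiroxatrine for α2C. pIC50 came from sigmoidal competition curves.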
# [2] = target: T2, human adrenergic-α2A receptor (Homo sapiens, UniProt P08913); test: Radioligand binding experiment for hα2A-adrenergic receptor ([3H]raulwolscine); conditions: [3H]raulwolscine 1 nM, 60 minutes at 25° C.; read-out: h-α2A pIC50 (converted)
# T2 construct: expressed in transfected cells; host or cells: CHO cells, stably transfected; membrane preparation
# T2 sequence (P08913 1-465): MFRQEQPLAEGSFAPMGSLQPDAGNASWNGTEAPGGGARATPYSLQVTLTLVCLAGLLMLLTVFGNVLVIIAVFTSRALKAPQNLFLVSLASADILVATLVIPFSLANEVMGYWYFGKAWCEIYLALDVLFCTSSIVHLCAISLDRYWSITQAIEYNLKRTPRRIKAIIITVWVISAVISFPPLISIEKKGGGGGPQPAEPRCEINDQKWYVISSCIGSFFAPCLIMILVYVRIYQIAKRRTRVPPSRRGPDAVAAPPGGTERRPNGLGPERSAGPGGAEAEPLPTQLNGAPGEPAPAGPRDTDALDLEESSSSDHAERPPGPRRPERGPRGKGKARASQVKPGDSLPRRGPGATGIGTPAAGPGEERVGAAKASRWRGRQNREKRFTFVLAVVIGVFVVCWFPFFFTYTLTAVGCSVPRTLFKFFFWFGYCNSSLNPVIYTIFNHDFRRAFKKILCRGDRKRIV
# How it was run: as §1
# 5HT-transporter = target: T3, 5HT-transporter (Homo sapiens, UniProt P31645); test: Binding experiment for the 5HT-transporter ([3H]paroxetine, human platelet membranes); conditions: [3H]paroxetine 0.5 nM, 60 min at 25° C., read-out: h-5HTT pIC50 (converted)
# T3 construct: Human platelet membranes (Oceanix Biosciences Corporation, Hanover, Md., USA) were thawed; tissue Oceanix Biosciences Corporation, Hanover, Md., USA; host or cells: human platelet membranes
# How it was run: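 Competition binding of [3H]paroxetine to human platelet membranes in Tris-HCl 50 mM with 120 mM NaCl and 5 mM KCl; bound radioligand separated by GF/B filtration and counted.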
# T3 sequence (P31645 whole entry): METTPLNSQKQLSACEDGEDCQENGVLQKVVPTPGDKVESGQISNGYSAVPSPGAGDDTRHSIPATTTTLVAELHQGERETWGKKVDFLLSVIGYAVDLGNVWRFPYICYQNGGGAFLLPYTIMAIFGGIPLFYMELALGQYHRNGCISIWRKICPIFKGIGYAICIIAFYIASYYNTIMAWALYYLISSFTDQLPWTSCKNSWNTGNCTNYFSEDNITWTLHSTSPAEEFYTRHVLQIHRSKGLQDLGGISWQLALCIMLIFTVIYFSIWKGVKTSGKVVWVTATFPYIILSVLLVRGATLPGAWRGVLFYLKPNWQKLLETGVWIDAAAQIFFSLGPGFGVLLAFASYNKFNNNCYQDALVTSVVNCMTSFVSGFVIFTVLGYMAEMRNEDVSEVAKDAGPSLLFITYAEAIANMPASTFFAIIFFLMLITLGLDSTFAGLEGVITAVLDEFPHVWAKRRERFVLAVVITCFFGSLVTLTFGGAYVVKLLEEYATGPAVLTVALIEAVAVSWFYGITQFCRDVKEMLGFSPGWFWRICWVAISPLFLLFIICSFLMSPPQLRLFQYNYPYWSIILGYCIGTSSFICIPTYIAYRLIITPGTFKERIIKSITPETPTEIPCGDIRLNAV
SMILES,IC50 [1] [nM],IC50 [2] [nM],IC50 (5HT-transporter) [nM]
O=c1c(NC2CCN(Cc3ccc4ccccc4c3)CC2)nccn1-c1ccc(COCC2CCCO2)cc1 (stereo not drawn) [3-14],3.98,251,15.8
CCOC(CCn1ccnc(NC2CCN(Cc3ccc4ccccc4c3)CC2)c1=O)OC (stereo not drawn) [4-01],100,1260,200
CCOC(CCn1ccnc(NC2CCN(Cc3ccc4ccccc4c3)CC2)c1=O)OCC [4-02],79.4,794,251
COC(CCn1ccnc(NC2CCN(Cc3ccc4ccccc4c3)CC2)c1=O)OC [4-03],100,1000,316
O=c1c(NC2CCN(Cc3ccc4ccccc4c3)CC2)nccn1CCC1OCCO1 [4-04],79.4,501,158
O=c1c(NC2CCN(Cc3ccc4ccccc4c3)CC2)nccn1-c1ccc2c(c1)OCCO2 [4-05],31.6,20,10
O=c1[nH]ccnc1NC1CCN(Cc2ccc3ccccc3c2)CC1 [5-01],126,501,1260
CCCn1ccnc(NC2CCN(Cc3ccc4ccccc4c3)CC2)c1=O [5-02],63.1,158,100
CC(=O)Cn1ccnc(NC2CCN(Cc3ccc4ccccc4c3)CC2)c1=O [5-03],100,200,1000
CC(C)(C)C(=O)Cn1ccnc(NC2CCN(Cc3ccc4ccccc4c3)CC2)c1=O [5-04],39.8,200,398
N#CCCn1ccnc(NC2CCN(Cc3ccc4ccccc4c3)CC2)c1=O [5-05],200,398,316
O=c1c(NC2CCN(Cc3ccc4ccccc4c3)CC2)nccn1CCCC(c1ccc(F)cc1)c1ccc(F)cc1 [5-07],158,316,158
O=C(CCn1ccnc(NC2CCN(Cc3ccc4ccccc4c3)CC2)c1=O)c1ccccc1 [5-08],50.1,100,15.8
O=c1c(NC2CCN(Cc3ccc4ccccc4c3)CC2)nccn1Cc1cccc([N+](=O)[O-])c1 [5-09],79.4,200,50.1
O=Cc1ccc(-n2ccnc(NC3CCN(Cc4ccc5ccccc5c4)CC3)c2=O)cc1 [5-10],63.1,316,100
O=Cc1ccc(-n2ccnc(NC3CCN(Cc4ccc5ccccc5c4)CC3)c2=O)cc1F [5-11],63.1,398,39.8
O=c1c(NC2CCN(Cc3ccc4ccccc4c3)CC2)nccn1Cc1cccc(Br)c1 [5-13],126,200,126
O=c1c(NC2CCN(Cc3ccc4ccccc4c3)CC2)nccn1-c1nccs1 [6-01],63.1,251,20
O=c1c(NC2CCN(Cc3ccc4ccccc4c3)CC2)nccn1-c1ccc2[nH]ccc2c1 [6-02],31.6,126,25.1
O=c1c(NC2CCN(Cc3ccc4ccccc4c3)CC2)nccn1-c1ccc2cc[nH]c2c1 [6-03],39.8,50.1,50.1
O=c1c(NC2CCN(Cc3ccc4ccccc4c3)CC2)nccn1-c1csc2ccccc12 [6-04],50.1,251,31.6
O=c1c(NC2CCN(Cc3ccc4ccccc4c3)CC2)nccn1-c1cncnc1 [6-08],200,631,200
O=c1c(NC2CCN(Cc3ccc4ccccc4c3)CC2)nccn1-c1cnc2ccccc2c1 [6-09],126,200,50.1

SMILES,IC50 [1] [nM],IC50 [2] [nM],IC50 (5HT-transporter) [nM]
O=c1c(NC2CCN(Cc3ccc4ccccc4c3)CC2)nccn1Cc1cc2ccccc2cn1 [6-10],63.1,251,126
O=c1[nH]ncn1CCCn1ccnc(NC2CCN(Cc3ccc4ccccc4c3)CC2)c1=O [6-11],100,794,126
O=c1c(NC2CCN(Cc3ccc4ccccc4c3)CC2)nccn1-c1ccc2c(c1)CN(CCO)CC2 [6-12],5.01,31.6,39.8
CC(=O)N1CCc2ccc(-n3ccnc(NC4CCN(Cc5ccc6ccccc6c5)CC4)c3=O)cc2C1 [6-13],10,126,25.1
Cn1ccnc1CN1CCc2ccc(-n3ccnc(NC4CCN(Cc5ccc6ccccc6c5)CC4)c3=O)cc2C1 [6-15],3.98,100,10
O=c1c(NC2CCN(Cc3ccc4ccccc4c3)CC2)nccn1-c1ccccn1 [6-16],25.1,63.1,158
O=c1[nH]c(-c2cccc(Br)c2)c(Cl)nc1NC1CCN(Cc2ccc3ccccc3c2)CC1 [7-01],794,1580,501
O=c1[nH]c(-c2cccc(CNCCF)c2)c(Cl)nc1NC1CCN(Cc2ccc3ccccc3c2)CC1 [7-03],200,794,794
O=c1[nH]c(-c2cccc(CNCC3CCCO3)c2)c(Cl)nc1NC1CCN(Cc2ccc3ccccc3c2)CC1 (stereo not drawn) [7-04],126,631,398
O=c1[nH]c(-c2cccc(CN3CCCCC3)c2)c(Cl)nc1NC1CCN(Cc2ccc3ccccc3c2)CC1 [7-05],126,794,631
O=c1[nH]c(-c2cccc(CN3CCC(F)CC3)c2)c(Cl)nc1NC1CCN(Cc2ccc3ccccc3c2)CC1 [7-06],251,1260,1000
O=c1[nH]c(-c2cccc(CN3CCOCC3)c2)c(Cl)nc1NC1CCN(Cc2ccc3ccccc3c2)CC1 [7-08],501,1580,1260
CN1CCN(Cc2cccc(-c3[nH]c(=O)c(NC4CCN(Cc5ccc6ccccc6c5)CC4)nc3Cl)c2)CC1 [7-10],100,631,200
COc1ccc(Cn2c(-c3ccc(CO)cc3)c(Cl)nc(NC3CCN(Cc4ccc5ccccc5c4)CC3)c2=O)cc1 [8-03],251,200,126
COC(=O)c1ccc(-c2c(Cl)nc(NC3CCN(Cc4ccc5ccccc5c4)CC3)c(=O)n2Cc2ccc(OC)cc2)cc1 [8-04],1260,1260,794
COc1ccc(Cn2c(-c3cccc(CNCC4CCCO4)c3)c(Cl)nc(NC3CCN(Cc4ccc5ccccc5c4)CC3)c2=O)cc1 (stereo not drawn) [8-07],158,501,100
COc1ccc(Cn2c(-c3ccc(CNCC4CCCO4)cc3)c(Cl)nc(NC3CCN(Cc4ccc5ccccc5c4)CC3)c2=O)cc1 (stereo not drawn) [8-08],200,316,63.1
COc1ccc(Cn2c(-c3cccc(CN4CCCCC4)c3)c(Cl)nc(NC3CCN(Cc4ccc5ccccc5c4)CC3)c2=O)cc1 [8-09],50.1,100,50.1
COc1ccc(Cn2c(-c3cccc(CN4CCC(O)CC4)c3)c(Cl)nc(NC3CCN(Cc4ccc5ccccc5c4)CC3)c2=O)cc1 [8-10],79.4,158,31.6
COc1ccc(Cn2c(-c3ccc(CN4CCC(O)CC4)cc3)c(Cl)nc(NC3CCN(Cc4ccc5ccccc5c4)CC3)c2=O)cc1 [8-11],39.8,126,31.6
COc1ccc(Cn2c(-c3cccc(CN4CCC(F)CC4)c3)c(Cl)nc(NC3CCN(Cc4ccc5ccccc5c4)CC3)c2=O)cc1 [8-12],79.4,100,126
COc1ccc(Cn2c(-c3cccc(N4CCC(N5CCCC5)CC4)c3)c(Cl)nc(NC3CCN(Cc4ccc5ccccc5c4)CC3)c2=O)cc1 [8-13],126,501,126
